Series [1] concerns the target T1, TNFα (Homo sapiens, UniProt P01375).
T1 construct: purchased
Kind of series: In vitro L929 cell proliferation/cytotoxicity assay, TNFα activity inhibition. The format is cell-based. The following applies: L929 cell line, TNFα 0.1 ng/ml, Act D 2 μg/ml; read-out: IC50 as TNFα antagonist. How it is done:
(§1) In vitro L929 cell proliferation/cytotoxicity assay was performed on microtiter plates. L929 cells were cultured in Eagle's Minimal Essential Medium (EMEM) containing 10% bovine serum, 1% P/S and 1% non-essential amino acid. Confluent L929 cells were washed with 2 ml PBS solution and then trypsinized, followed by resuspending in complete medium. Two hundred μl cell suspension was aspirated for counting the cell density and the other suspension was centrifuged at 1500 rpm for 5 min. The supernatant was removed and the complete medium was added to dilute cells to a final concentration of 1.5×10^5 cells/ml. One hundred μl of cell suspension was added to each well in 96-well flat-bottomed microtiter plates and incubated for 24 hrs in 5% CO2 atmosphere at 37° C.
The chemical was resuspended in 1×PBS and sterilized with 0.22 μm filters. […]
(§2) The same samples as those for TNFα activity assay were added to the 96-well plate with the medium containing Act D to give the final concentration of Act D 2 μg/ml. […] 50 μl XTT (2,3-bis(2-methoxy-4-nitro-5-sulfophenyl)-5-[((phenylamino)carbonyl]-2H-tetra -zolium hydroxide) mixture was added to each well, and incubated for 4 hrs. Read with ELISA reader at O.D. 490/630 nm. Calculation of the TNFα Activity Inhabitation and Cytotoxicity [formula] [formula] 8. The Effect of the Methanolic Extract of A. Paniculata on L929 Cell Proliferation/Cytotoxicity Assay

In series [2] the test system is L929 cells. Kind of series: Cytotoxicity on L929 cells (XTT, with Act D, without TNFα). Conditions: at the IC50 concentration (60 μM). It is filed as cell-based. How it is done:
as §1, §2

In series [3] the test system is collagen-induced arthritis. Kind of series: Anti-inflammatory effect on rats with collagen-induced arthritis model. The format is in vivo, SD rats. The following applies: for histopathological slice of joint: rat with CIA.
Setting [4] is: CIA rats, 3rd day after treatment stopped (T4).
Setting [5] is: CIA rats, 7th day after treatment stopped (T5).

T1 sequence (P01375 77-233 limits assumed): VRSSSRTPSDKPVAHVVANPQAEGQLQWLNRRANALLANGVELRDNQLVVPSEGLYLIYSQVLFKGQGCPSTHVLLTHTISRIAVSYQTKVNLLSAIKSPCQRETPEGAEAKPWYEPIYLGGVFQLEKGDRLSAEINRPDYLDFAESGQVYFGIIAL

With `C=C1CC[C@@H]2[C@](C)(CO)[C@H](O)CC[C@@]2(C)[C@@H]1C/C=C1/C(=O)OC[C@H]1O` [andrographolide, Andrographolide], in series [1], the IC50 is 60 µM. Also, the cytotoxicity result in series [2] is given as “No cytotocixity was found”. Also, the figures for the “decreased percentage of edema” value in series [3] (setting [4]) and in series [3] (setting [5]) were 61.43% and 50.24%, respectively. Further, in series [3] (CIA rats, during the 7-day treatment (T3, 6th day of treatment)), the “decreased percentage of edema volume of hind paws” value came to 48.1%. For the same compound, the “histopathological slice of joint” value was “Proliferation of synovial lining cell and infiltration of erythrocytes and some lymphocytes were observed” in series [3] (treated IP); “Proliferation of synovial lining cell and loosely connective tissues appeared” in series [3] (treated by external application); “Proliferation of synovial lining cell and infiltration of lymphocytes were found” in series [3] (treated by oral).

As for `C[C@@H]1C[C@H]2[C@@H]3CCC4=CC(=O)C=C[C@]4(C)[C@@]3(F)[C@@H](O)C[C@]2(C)[C@@]1(O)C(=O)CO` [dexamethasone, Dexamethasone, reference compound], the “decreased percentage of edema” value in series [3] (setting [4]) amounted to 28.21%; in series [3] (setting [5]), 29.97%.

What is called IC50 is the concentration that gives 50% inhibition.

The values are drawn from patent US20060106098A1, “Andrographolide and its derivatives as TNF-alpha antagonists” (Advanced Gene Technology, Corp., priority 2004, published 2006).
